The record followed here is ChEMBL document CHEMBL1144705, “Erythrina alkaloids and a pterocarpan from the bark of Erythrina subumbrans” (J Nat Prod, 2008).

Experiment [1] concerns Mycobacterium tuberculosis. The experiment in a line: Antimycobacterial activity against Mycobacterium tuberculosis H37Ra by Alamar blue assay. Type of experiment: functional.
The test system of a further experiment is KB. Kind of experiment: Cytotoxicity against human KB cells. Type of experiment: functional, cell-based.
The test system of the next experiment is NCI-H187. Kind of experiment: Cytotoxicity against human NCI-H187 cells. It counts as functional, cell-based.
Experiment [2] in a line: (§1) Cytotoxicity against human BC cells. Type of experiment: functional, cell-based.
A further experiment has as its system BC. Described as §1. Type of experiment: functional, cell-based.
For another experiment, the system named is Plasmodium falciparum. Kind of experiment: Antimalarial activity against multidrug-resistant Plasmodium falciparum K1 by microculture radioisotope assay. It counts as functional, organism-based.

≈ marks a conversion by molar mass, not a printed value. Calls of active or inactive are those of the source. The rule behind the calls is not given here.

The MIC is the lowest concentration that inhibits growth of the organism. A higher MIC goes with a less susceptible organism. Usually IC50 stands for the midpoint of a concentration-inhibition curve. Low readings indicate greater potency, high ones weaker potency. In turn, `COc1c(CC=C(C)C)c(O)cc2c1[C@@H]1Oc3c(ccc(O)c3CC=C(C)C)[C@@H]1CO2` displayed an MIC in experiment [1] of 50 µg/mL (≈ 118 µM). Further, the half-inhibitory concentration (IC50) (in the experiment on KB; in the experiment with NCI-H187; in experiment [2]) was 7.6 µg/mL (≈ 18 µM) in each case.
Consider `CO[C@@H]1C[C@@]23C(=C[C@H]1O)CCN2C(=O)C(=O)c1cc2c(cc13)OCO2`, for which the result (in experiment [1]; with KB; in the experiment with NCI-H187; with BC; in the experiment on Plasmodium falciparum) was inactive.
In turn, `COc1ccc2c(c1)OC[C@@]1(O)c3ccc4c(c3O[C@@H]21)C[C@H](O)C(C)(C)O4` [ERYVARIN A] showed a minimal inhibitory concentration (MIC) in experiment [1] of 100 µg/mL (≈ 270 µM).
For `COc1cc2c(cc1OC)[C@]13C[C@@H](OC)[C@H](O)C=C1CCN3C(=O)C2=O`, the outcome (in experiment [1]; in the experiment on KB; with NCI-H187; in the experiment on BC; in the experiment with Plasmodium falciparum) was inactive.
In the case of `CC(C)=CCc1cc([C@@H]2CC(=O)c3c(O)cc(O)c(CC=C(C)C)c3O2)ccc1O` [LESPEDEZAFLAVANONE B], in experiment [1], it took 100 µg/mL (≈ 245 µM) to inhibit growth (MIC). Moreover, the concentration for half-maximal inhibition (IC50) turned out to be 7.6 µg/mL (≈ 18.6 µM) in the experiment with KB, 7.6 µg/mL (≈ 18.6 µM) in the experiment on NCI-H187, 7.6 µg/mL (≈ 18.6 µM) in experiment [2] and 3.7 µg/mL (≈ 9.06 µM) in the experiment on Plasmodium falciparum.
Consider `CC(C)=CCc1cc([C@@H]2CC(=O)c3c(O)cc(O)cc3O2)cc(CC=C(C)C)c1O` [ABYSSINONE V], for which, in experiment [1], 100 µg/mL (≈ 245 µM) was the least that counted as inhibitory (MIC). In the experiment on Plasmodium falciparum, this compound came in with an IC50 of 7 µg/mL (≈ 17.1 µM).
